PubChem BioAssay (NCI)
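96-well plates; 48 h exposure; 5 concentrations. Endpoints by linear interpolation between flanking doses. Not reached: highest tested concentration assigned. The concentration for full growth arrest is given as TGI.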 Where a SMILES comes first, the peptide text is derived from it. The star is where a group is joined. Boc = CC(C)(C)OC(=O)*

Experiments:
Test in all cases: NCI-60 cell line screen, 48 h
[1] = test system: 786-0 renal
[2] = test system: A549 NSCLC
[3] = test system: ACHN renal
[4] = test system: CCRF-CEM leukemia
[5] = test system: COLO 205 colon
[6] = test system: DLD-1 colon
[7] = test system: DMS 114 small cell lung
[8] = test system: DMS 273 small cell lung
[9] = test system: EKVX NSCLC
[10] = test system: HCC-2998 colon
[11] = test system: HCT-116 colon
[12] = test system: HCT-15 colon
[13] = test system: HL-60(TB) leukemia
[14] = test system: HOP-62 NSCLC
[15] = test system: HOP-92 NSCLC
[16] = test system: HT29 colon
[17] = test system: IGROV1 ovarian
[18] = test system: K-562 leukemia
[19] = test system: KM12 colon
[20] = test system: LOX IMVI melanoma
[21] = test system: LXFL 529 NSCLC
[22] = test system: M14 melanoma
[23] = test system: M19-MEL melanoma
[24] = test system: MALME-3M melanoma
[25] = test system: MOLT-4 leukemia
[26] = test system: NCI-H226 lung
[27] = test system: NCI-H23 lung
[28] = test system: NCI-H460 lung
[29] = test system: NCI-H522 lung
[30] = test system: OVCAR-3 ovarian
[31] = test system: OVCAR-4 ovarian
[32] = test system: OVCAR-5 ovarian
[33] = test system: OVCAR-8 ovarian
[34] = test system: RPMI-8226 leukemia
[35] = test system: RXF 393 renal
[36] = test system: SF-268 CNS
[37] = test system: SF-295 CNS
[38] = test system: SF-539 CNS
[39] = test system: SK-MEL-2 melanoma
[40] = test system: SK-MEL-28 melanoma
[41] = test system: SK-MEL-5 melanoma
[42] = test system: SK-OV-3 ovarian
[43] = test system: SN12C renal
[44] = test system: SNB-19 CNS
[45] = test system: SNB-75 CNS
[46] = test system: SNB-78 CNS
[47] = test system: SR leukemia
[48] = test system: SW-620 colon
[49] = test system: TK-10 renal
[50] = test system: U251 CNS
[51] = test system: UACC-257 melanoma
[52] = test system: UACC-62 melanoma
[53] = test system: UO-31 renal
[54] = test system: XF 498 CNS
[55] = test system: A498 renal
[56] = test system: CAKI-1 renal
[57] = test system: RXF-631 renal

COc1ccc2c3c(c(C(=O)O)oc13)CCC2
TGI [1]: > 100 µM | TGI [2]: > 100 µM | TGI [3]: > 100 µM | TGI [4]: > 100 µM | TGI [5]: > 100 µM | TGI [6]: > 100 µM | TGI [7]: > 100 µM | TGI [8]: > 100 µM | TGI [9]: > 100 µM | TGI [10]: > 100 µM | TGI [11]: > 100 µM | TGI [12]: > 100 µM | TGI [13]: > 100 µM | TGI [14]: > 100 µM | TGI [15]: > 100 µM | TGI [16]: > 100 µM | TGI [17]: > 100 µM | TGI [18]: > 100 µM | TGI [19]: > 100 µM | TGI [20]: > 100 µM | TGI [21]: > 100 µM | TGI [22]: > 100 µM | TGI [23]: > 100 µM | TGI [24]: > 100 µM | TGI [25]: > 100 µM | TGI [26]: 83 µM | TGI [27]: > 100 µM | TGI [28]: > 100 µM | TGI [29]: > 100 µM | TGI [30]: > 100 µM | TGI [31]: > 100 µM | TGI [32]: > 100 µM | TGI [33]: > 100 µM | TGI [34]: > 100 µM | TGI [35]: > 100 µM | TGI [36]: > 100 µM | TGI [37]: > 100 µM | TGI [38]: > 100 µM | TGI [39]: > 100 µM | TGI [40]: > 100 µM | TGI [41]: > 100 µM | TGI [42]: > 100 µM | TGI [43]: > 100 µM | TGI [44]: > 100 µM | TGI [45]: > 100 µM | TGI [46]: > 100 µM | TGI [47]: > 100 µM | TGI [48]: > 100 µM | TGI [49]: > 100 µM | TGI [50]: > 100 µM | TGI [51]: > 100 µM | TGI [52]: > 100 µM | TGI [53]: > 100 µM | TGI [54]: > 100 µM

CSCCC(NC(=O)C(CC(C)C)NC(=O)C1CCCN1C(=O)C(Cc1ccccc1)NC(=O)C(Cc1ccccc1)NC(=O)C(CCC(=O)O)NC(=O)OC(C)(C)C)C(N)=O (centres undefined) (Boc-EFFPLM-NH2; configuration not given here)
TGI [1]: > 100 µM | TGI [55]: > 100 µM | TGI [56]: > 100 µM | TGI [4]: > 100 µM | TGI [5]: > 100 µM | TGI [6]: > 100 µM | TGI [7]: > 100 µM | TGI [8]: > 100 µM | TGI [10]: > 100 µM | TGI [11]: > 100 µM | TGI [13]: > 100 µM | TGI [14]: > 100 µM | TGI [15]: > 100 µM | TGI [17]: > 100 µM | TGI [18]: > 100 µM | TGI [20]: > 100 µM | TGI [21]: > 100 µM | TGI [22]: > 100 µM | TGI [23]: > 100 µM | TGI [24]: > 100 µM | TGI [25]: > 100 µM | TGI [26]: > 100 µM | TGI [27]: > 100 µM | TGI [28]: > 100 µM | TGI [29]: > 100 µM | TGI [31]: > 100 µM | TGI [34]: > 100 µM | TGI [57]: > 100 µM | TGI [36]: > 100 µM | TGI [38]: > 100 µM | TGI [39]: > 100 µM | TGI [40]: > 100 µM | TGI [42]: > 100 µM | TGI [43]: > 100 µM | TGI [45]: > 100 µM | TGI [46]: > 100 µM | TGI [47]: > 100 µM | TGI [52]: > 100 µM | TGI [53]: > 100 µM | TGI [54]: > 100 µM
